From patent US12247045B2, “MAP4K4 inhibitors” (Imperial College Innovations Limited, priority 2018, dated 2025)

biological target: T1, human MAP4K4 kinase domain (Homo sapiens, UniProt O95819); test: MAP4K4 kinase activity, CisBio HTRF Transcreener ADP assay; type: biochemical; settings: IC50 category; ATP at Km (10 μM), 0.5 nM kinase domain, 2 h; read-out: MAP4K4
T1 construct: 0.5 nM human MAP4K4 kinase domain (Invitrogen); purchased Invitrogen
From the text: Compounds of the present invention were screened for their inhibitory activity against MAP4K4, versus selected off-target hits found with early members of this chemical series. MAP4K4 kinase activity was monitored using the CisBio HTRF Transcreener ADP assay, a competitive immunoassay with a reproducible Z′>0.6. In the detection step, endogenous ADP and d2-labeled ADP compete for binding an anti-ADP monoclonal antibody labelled with Eu^3+ cryptate. A ratiometric fluorescent read-out is used at 665 and 620 nm. Reactions were performed in the presence of 1% DMSO with ATP added at Km (10 μM), 0.5 nM human MAP4K4 kinase domain (Invitrogen), 1 μM biotin-myelin basic protein as substrate (Invitrogen), and extension of reaction time to 2 h. Assays were run in Greiner low volume plates with a final reaction volume of 10 μl. The MAP4K4 inhibition data are provided in Table 41 below for selected compounds of the present invention. The data has been categorised based on the IC50 value of the compound as “A”, “B” or “C”. IC50: A≤100 nM; 100 nM<B≤1 μM; 1 μM<C; nd=not determined.

T1 sequence (O95819 25-289 limits assumed): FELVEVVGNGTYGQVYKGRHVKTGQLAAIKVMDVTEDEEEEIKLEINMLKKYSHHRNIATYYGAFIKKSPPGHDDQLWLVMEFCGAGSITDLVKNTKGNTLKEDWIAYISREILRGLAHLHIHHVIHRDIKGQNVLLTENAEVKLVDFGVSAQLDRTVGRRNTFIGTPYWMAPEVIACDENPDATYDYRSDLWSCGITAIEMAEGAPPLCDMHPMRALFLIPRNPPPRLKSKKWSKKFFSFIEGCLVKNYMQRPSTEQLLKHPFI

| IC50 | Structure (SMILES) |
| --- | --- |
| 100 to 1000 nM | O=c1[nH]cnc2c1c(-c1ccccc1)cn2-c1ccncc1 [Ex-2] |
| ≤ 100 nM | O=c1[nH]cnc2c1c(-c1cccnc1)cn2-c1ccccc1 [Ex-5] |
| ≤ 100 nM | CC(=O)Nc1ccc(-c2cn(-c3ccccc3)c3nc[nH]c(=O)c23)cn1 [Ex-6] |
| ≤ 100 nM | Nc1cc(-c2cn(-c3ccccc3)c3nc[nH]c(=O)c23)ccn1 [Ex-8] |
| ≤ 100 nM | Nc1ccc(-c2cn(-c3ccccc3)c3nc[nH]c(=O)c23)cn1 [Ex-9] |
| 100 to 1000 nM | CNCCC(=O)Nc1ccc(-c2cn(-c3ccncc3)c3nc[nH]c(=O)c23)cc1 [Ex-10] |
| 100 to 1000 nM | CC(=O)N1CC(n2cc(-c3cn(-c4ccncc4)c4nc[nH]c(=O)c34)cn2)C1 [Ex-12] |
| ≤ 100 nM | O=C(C1CC1)N1CC(n2cc(-c3cn(-c4cccc(F)c4)c4nc[nH]c(=O)c34)cn2)C1 [Ex-15] |
| ≤ 100 nM | COc1cc(-c2cn(-c3ccccc3)c3nc[nH]c(=O)c23)ccn1 [Ex-17] |
| ≤ 100 nM | COc1ccc(-c2cn(-c3ccccc3)c3nc[nH]c(=O)c23)cn1 [Ex-18] |
| ≤ 100 nM | COC(=O)Cn1cc(-c2cn(-c3ccccc3)c3nc[nH]c(=O)c23)cn1 [Ex-21] |
| ≤ 100 nM | O=c1[nH]cnc2c1c(-c1cnn(Cc3ccccc3)c1)cn2-c1ccccc1 [Ex-23] |
| > 1000 nM | Cn1ccc(-c2cn(-c3ccccc3)c3nc[nH]c(=O)c23)n1 [Ex-25] |
| 100 to 1000 nM | COCCNc1ncc(-c2cn(-c3ccncc3)c3nc[nH]c(=O)c23)cn1 [Ex-32] |
| ≤ 100 nM | CN(C)CCCOc1ccc(-c2cn(-c3cccnc3)c3nc[nH]c(=O)c23)cc1 [Ex-33] |
| 100 to 1000 nM | CC(=O)N1CC(n2cc(-c3cn(-c4cccnc4)c4nc[nH]c(=O)c34)cn2)C1 [Ex-35] |
| > 1000 nM | O=c1[nH]cnc2c1c(-c1cnc(N3CC(O)C3)nc1)cn2-c1cccnc1 [Ex-37] |

| IC50 | Structure (SMILES) |
| --- | --- |
| ≤ 100 nM | COCCNc1ccc(-c2cn(-c3ccccc3)c3nc[nH]c(=O)c23)cn1 [Ex-38] |
| 100 to 1000 nM | COCCNc1ccc(-c2cn(-c3cccnc3)c3nc[nH]c(=O)c23)cn1 [Ex-39] |
| ≤ 100 nM | N#Cc1cc(-c2cn(-c3ccccc3)c3nc[nH]c(=O)c23)cnc1N1CC[C@@H](O)C1 [Ex-40] |
| 100 to 1000 nM | CC(=O)OCCn1cc(-c2cn(-c3ccc(F)cc3)c3nc[nH]c(=O)c23)cn1 [Ex-47, 2-(4-(7-(4-fluorophenyl)-4-oxo-4,7-dihydro-3H-pyrrolo[2,3-d]pyrimidin-5-yl)-1H-pyrazol-1-yl)ethyl Acetate] |
| ≤ 100 nM | O=c1[nH]cnc2c1c(-c1cnc(NCCO)nc1)cn2-c1ccccc1 [Ex-49] |
| 100 to 1000 nM | O=c1[nH]cnc2c1c(-c1cnc(N3CC(O)C3)nc1)cn2-c1ccccc1 [Ex-50] |
| ≤ 100 nM | CN(CCO)c1ncc(-c2cn(-c3ccccc3)c3nc[nH]c(=O)c23)cc1C#N [Ex-53] |
| ≤ 100 nM | CC(=O)N1CC(n2cc(-c3cn(-c4ccccc4)c4nc[nH]c(=O)c34)cn2)C1 [Ex-60] |
| 100 to 1000 nM | COCCn1cc(-c2cn(-c3ccncc3)c3nc[nH]c(=O)c23)cn1 [Ex-63] |
| ≤ 100 nM | CC(C)(C)OC(=O)N1CC(n2cc(-c3cn(-c4ccccc4)c4nc[nH]c(=O)c34)cn2)C1 [Ex-65, 3-[4-(4-oxo-7-phenyl-4,7-dihydro-3H-pyrrolo[2,3-d]pyrimidin-5-yl)-pyrazol-1-yl]-azetidine-1-carboxylic acid tert-butyl ester] |
| ≤ 100 nM | CC(C)(O)COc1ccc(-c2cn(-c3cccnc3)c3nc[nH]c(=O)c23)cc1 [Ex-66, 5-(4-(2-hydroxy-2-methylpropoxy)phenyl)-7-(pyridin-3-yl)-3,7-dihydro-4H-pyrrolo[2,3-d]pyrimidin-4-one] |
| ≤ 100 nM | O=c1[nH]cnc2c1c(-c1ccc(OCCC3(O)CC3)cc1)cn2-c1cccnc1 [Ex-70] |
| ≤ 100 nM | COCCCOc1ccc(-c2cn(-c3cccnc3)c3nc[nH]c(=O)c23)cc1 [Ex-71] |
| ≤ 100 nM | O=c1[nH]cnc2c1c(-c1ccc(OCC3(CO)COC3)cc1)cn2-c1ccncc1 [Ex-76] |
| ≤ 100 nM | O=c1[nH]cnc2c1c(-c1ccc(OCC3(CO)COC3)cc1)cn2-c1cccnc1 [Ex-79] |
| ≤ 100 nM | O=c1[nH]cnc2c1c(-c1ccc(O[C@@H]3CO[C@@H]4[C@H]3OC[C@@H]4O)cc1)cn2-c1cccnc1 [Ex-80] |

The next lines start with the compound.

| Structure (SMILES) | IC50 |
| --- | --- |
| O=c1[nH]cnc2c1c(-c1ccccc1)cn2-c1cccnc1 [Ex-1, 5-Phenyl-7-pyridin-3-yl-3,7-dihydro-pyrrolo[2,3-d]pyrimidin-4-one] | 100 to 1000 nM |
| CC(=O)N1CC(n2cc(-c3cn(-c4ccc(F)cc4)c4nc[nH]c(=O)c34)cn2)C1 [Ex-3, 5-[1-(1-Acetyl-azetidin-3-yl)-1H-pyrazol-4-yl]-7-(4-fluoro-phenyl)-3,7-dihydro-pyrrolo[2,3-d]pyrimidin-4-one] | 100 to 1000 nM |
| O=c1[nH]cnc2c1c(-c1ccncc1)cn2-c1ccccc1 [Ex-4] | ≤ 100 nM |
| Cc1noc(C)c1-c1cn(-c2ccccc2)c2nc[nH]c(=O)c12 [Ex-7] | > 1000 nM |
| CC(=O)N1CC(n2cc(-c3cn(-c4cccc(F)c4)c4nc[nH]c(=O)c34)cn2)C1 [Ex-11] | ≤ 100 nM |
| COCCOc1ccc(-c2cn(-c3ccncc3)c3nc[nH]c(=O)c23)cn1 [Ex-13] | ≤ 100 nM |
| COCCNc1ccc(-c2cn(-c3ccncc3)c3nc[nH]c(=O)c23)cn1 [Ex-14] | ≤ 100 nM |
| CC(=O)NC1CC(n2cc(-c3cn(-c4ccccc4)c4nc[nH]c(=O)c34)cn2)C1 (stereo not drawn) [Ex-16] | ≤ 100 nM |
| COCCn1cc(-c2cn(-c3cccnc3)c3nc[nH]c(=O)c23)cn1 [Ex-19] | 100 to 1000 nM |
| COCCn1cc(-c2cn(-c3cccc(F)c3)c3nc[nH]c(=O)c23)cn1 [Ex-20] | ≤ 100 nM |
| Cn1cc(-c2cn(-c3ccccc3)c3nc[nH]c(=O)c23)cn1 [Ex-24] | ≤ 100 nM |
| COCCNc1ccc(-c2cn(-c3cccc(F)c3)c3nc[nH]c(=O)c23)cn1 [Ex-30] | ≤ 100 nM |
| COCCNc1ncc(-c2cn(-c3cccc(F)c3)c3nc[nH]c(=O)c23)cn1 [Ex-31] | ≤ 100 nM |
| COC(COc1ccc(-c2cn(-c3cccnc3)c3nc[nH]c(=O)c23)cc1)CN1CCOCC1 (stereo not drawn) [Ex-34] | ≤ 100 nM |
| O=C(C1CC1)N1CC(n2cc(-c3cn(-c4cccnc4)c4nc[nH]c(=O)c34)cn2)C1 [Ex-36] | 100 to 1000 nM |
| N#Cc1cc(-c2cn(-c3ccccc3)c3nc[nH]c(=O)c23)cnc1N1CC[C@H](O)C1 [Ex-41] | ≤ 100 nM |
| O=c1[nH]cnc2c1c(-c1ccc(OCCCN3CCOCC3)cc1)cn2-c1cccnc1 [Ex-42] | ≤ 100 nM |
| CN1CCN(CCCOc2ccc(-c3cn(-c4cccnc4)c4nc[nH]c(=O)c34)cc2)CC1 [Ex-43] | ≤ 100 nM |
| O=c1[nH]cnc2c(-c3ccccc3)cn(-c3cncc(F)c3)c12 [Ex-44] | ≤ 100 nM |
| O=c1[nH]cnc2c1c(-c1cnc(NCCO)nc1)cn2-c1cccnc1 [Ex-45] | 100 to 1000 nM |

| Structure (SMILES) | IC50 |
| --- | --- |
| CC(C)(O)COc1ccc(-c2cn(-c3ccccc3)c3nc[nH]c(=O)c23)cn1 [Ex-46] | ≤ 100 nM |
| O=c1[nH]cnc2c1c(-c1ccc(NCCO)nc1)cn2-c1ccccc1 [Ex-48, 5-[6-(2-Hydroxy-ethylamino)-pyridin-3-yl]-7-phenyl-3,7-dihydro-pyrrolo[2,3-d]pyrimidin-4-one] | ≤ 100 nM |
| O=c1[nH]cnc2c1c(-c1cnc(N3CC(CO)C3)nc1)cn2-c1ccccc1 [Ex-51] | 100 to 1000 nM |
| CN(CCO)c1ccc(-c2cn(-c3ccccc3)c3nc[nH]c(=O)c23)cn1 [Ex-52] | ≤ 100 nM |
| O=c1[nH]cnc2c1c(-c1cnn(CCO)c1)cn2-c1ccc(F)cc1 [Ex-55, 7-(4-fluorophenyl)-5-(1-(2-hydroxyethyl)-1H-pyrazol-4-yl)-3,7-dihydro-4H-pyrrolo[2,3-d]pyrimidin-4-one] | 100 to 1000 nM |
| O=c1[nH]cnc2c1c(-c1ccc[nH]1)cn2-c1ccccc1 [Ex-56, 7-Phenyl-5-(1H-pyrrol-2-yl)-3,7-dihydro-pyrrolo[2,3-d]pyrimidin-4-one] | ≤ 100 nM |
| O=c1[nH]cnc2c1c(-c1ccn[nH]1)cn2-c1ccccc1 [Ex-57] | 100 to 1000 nM |
| O=c1[nH]cnc2c1c(-c1cnn(CCO)c1)cn2-c1cccc(F)c1 [Ex-59] | ≤ 100 nM |
| O=c1[nH]cnc2c1c(-c1ccncc1F)cn2-c1ccccc1 [Ex-61] | 100 to 1000 nM |
| COCCn1cc(-c2cn(-c3ccccc3)c3nc[nH]c(=O)c23)cn1 [Ex-62] | ≤ 100 nM |
| COCCCn1cc(-c2cn(-c3ccccc3)c3nc[nH]c(=O)c23)cn1 [Ex-64] | ≤ 100 nM |
| CC(C)(O)COc1ccc(-c2cn(-c3ccncc3)c3nc[nH]c(=O)c23)cc1 [Ex-68, 5-(4-(2-hydroxy-2methylpropoxy)phenyl)-7-(pyridine-4-yl)-3,7-dihydro-4H-pyrrolo[2,3-d]pyrimidin-4-one] | ≤ 100 nM |
| CC(C)(O)CCOc1ccc(-c2cn(-c3ccncc3)c3nc[nH]c(=O)c23)cc1 [Ex-69] | ≤ 100 nM |
| CC(C)(O)CCOc1ccc(-c2cn(-c3cccnc3)c3nc[nH]c(=O)c23)c(F)c1 [Ex-72] | ≤ 100 nM |
| CC(C)(O)CCOc1ccc(-c2cn(-c3cccnc3)c3nc[nH]c(=O)c23)cc1F [Ex-73] | ≤ 100 nM |
| CC(C)(O)CCOc1ccc(-c2cn(-c3ccccc3)c3nc[nH]c(=O)c23)cn1 [Ex-75] | ≤ 100 nM |
| O=c1[nH]cnc2c1c(-c1ccc(OC(F)(F)CO)cc1)cn2-c1cccnc1 [Ex-77] | ≤ 100 nM |
| CC(C)(O)C(O)COc1ccc(-c2cn(-c3cccnc3)c3nc[nH]c(=O)c23)cc1 (stereo not drawn) [Ex-81] | ≤ 100 nM |
| Cc1cc(-n2cc(-c3ccc(OCCC(C)(C)O)cc3)c3c(=O)[nH]cnc32)ccn1 [Ex-82] | 100 to 1000 nM |
